For 29 molecules, IC50 results are on record in US20230113037A1 (Bayer Aktiengesellschaft, priority 2019, published 2023).

This assay deals with T1, AHR (Mus musculus, UniProt P30561).
T1 sequence (P30561 1-848 P471L/N533S/M589L): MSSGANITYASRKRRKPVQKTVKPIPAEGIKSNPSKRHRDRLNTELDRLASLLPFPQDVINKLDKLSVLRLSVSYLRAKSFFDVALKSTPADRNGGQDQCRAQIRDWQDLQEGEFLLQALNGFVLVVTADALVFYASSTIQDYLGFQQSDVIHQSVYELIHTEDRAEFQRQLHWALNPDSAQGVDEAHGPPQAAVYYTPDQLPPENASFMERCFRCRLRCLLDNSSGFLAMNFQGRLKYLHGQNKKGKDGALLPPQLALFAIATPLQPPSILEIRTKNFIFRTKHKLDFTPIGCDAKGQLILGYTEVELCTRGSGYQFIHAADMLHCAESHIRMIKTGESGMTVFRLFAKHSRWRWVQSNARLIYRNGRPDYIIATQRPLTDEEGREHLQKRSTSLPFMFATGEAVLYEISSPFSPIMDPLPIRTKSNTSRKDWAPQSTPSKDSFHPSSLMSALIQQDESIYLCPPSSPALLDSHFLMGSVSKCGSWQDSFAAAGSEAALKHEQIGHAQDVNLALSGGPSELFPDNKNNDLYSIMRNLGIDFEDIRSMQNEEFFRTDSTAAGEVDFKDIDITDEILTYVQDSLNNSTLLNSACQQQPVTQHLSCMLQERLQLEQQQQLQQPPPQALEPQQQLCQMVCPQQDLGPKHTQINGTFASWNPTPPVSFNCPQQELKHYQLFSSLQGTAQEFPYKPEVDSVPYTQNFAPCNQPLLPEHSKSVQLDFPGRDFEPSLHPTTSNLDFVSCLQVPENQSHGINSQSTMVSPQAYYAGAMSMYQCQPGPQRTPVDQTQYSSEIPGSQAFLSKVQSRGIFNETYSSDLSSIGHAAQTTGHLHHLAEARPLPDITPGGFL
The experiment in a line: In vitro assay 3: antagonism in mouse cell line (AHR transactivation, firefly luciferase reporter, kynurenic acid prestimulated). Type of assay: cell-based. As to the method:
Examples were tested in selected biological assays one or more times. When tested more than once, data are reported as either average values or as median values, wherein • the average value, also referred to as the arithmetic mean value, represents the sum of the values obtained divided by the number of times tested, and • the median value represents the middle number of the group of values when ranked in ascending or descending order. If the number of values in the data set is odd, the median is the middle value. If the number of values in the data set is even, the median is the arithmetic mean of the two middle values.
In addition the cells were stably transfected with an AHR inducible firefly luciferase reporter gene construct that carried AHR-binding sites (DRE) in its promoter. Kynurenic acid is an endogenous AHR activating ligand and was used to prestimulate test cells prior to testing the antagonistic properties of compounds.
As positive inhibition control cells without addition of kynurenic acid were incubated. Normalization was done by positive and negative controls.
Firefly luciferase activity was determined by the SteadyGlo Luciferase Assay System (Promega, #E2550).

[1] abbreviates: mouse Hepa 1c1c7 cells, 200 μM kynurenic acid, 20 hours, read-out: AHR Antagonism Mouse IC50.

The term IC50 denotes the concentration needed to halve the response being measured.

Where two headings read alike, the source gives them in different places.

Turning to `O=C1NCCCC[C@H]1Nc1nc2cccc(Cl)c2c2nc(-c3ccc(F)cc3)nn12` [Example 170, (3R)-3-{[10-chloro-2-(4-fluorophenyl)[1,2,4]triazolo[1,5-c]quinazolin-5-yl]amino}azepan-2-one], the concentration for half-maximal inhibition (IC50) under setting [1] was 0.584 nM. On to `COc1ccc(-c2nc3c4c(C)cccc4nc(NC4CNCCNC4=O)n3n2)cc1` (centres unmarked) [Example 192, 6-{[2-(4-methoxyphenyl)-10-methyl[1,2,4]triazolo[1,5-c]quinazolin-5-yl]amino}-1,4-diazepan-5-one], for which the IC50 under setting [1] was found to be 34.9 nM. On the same count and under the same terms, under `O=C1NCCCC[C@@H]1Nc1nc2c(Br)cccc2c2nc(-c3cccc(F)c3)nn12` [Example 209, (3S)-3-{[7-bromo-2-(3-fluorophenyl)[1,2,4]triazolo[1,5-c]quinazolin-5-yl]amino}azepan-2-one] stands 15.5 nM; under `O=C1NCCCC[C@@H]1Nc1nc2c(Br)cccc2c2nc(-c3ccc(F)cc3)nn12` [Example 210, (3S)-3-{[7-bromo-2-(4-fluorophenyl)[1,2,4]triazolo[1,5-c]quinazolin-5-yl]amino}azepan-2-one], 5.01 nM; under `COc1ccc(-c2nc3c4cccc(Br)c4nc(N[C@H]4CCCCNC4=O)n3n2)cc1` [Example 211, (3S)-3-{[7-bromo-2-(4-methoxyphenyl)[1,2,4]triazolo[1,5-c]quinazolin-5-yl]amino}azepan-2-one], 16.7 nM.

On to `COc1ccc(-c2nc3c4cccc(Br)c4nc(N[C@@H]4CCCCNC4=O)n3n2)cc1` [Example 215, (3R)-3-{[7-bromo-2-(4-methoxyphenyl)[1,2,4]triazolo[1,5-c]quinazolin-5-yl]amino}azepan-2-one], for which the IC50 under setting [1] was 1.23 nM.

As for `O=C1NCC[C@H]1Nc1nc2c(Br)cccc2c2nc(-c3ccc(F)cc3)nn12` [Example 217, (3R)-3-{[7-bromo-2-(4-fluorophenyl)[1,2,4]triazolo[1,5-c]quinazolin-5-yl]amino}pyrrolidin-2-one], the IC50 under setting [1] worked out at 2.54 nM. In the case of `O=C1NCCC[C@H]1Nc1nc2c(Br)cccc2c2nc(-c3ccc(F)cc3)nn12` [Example 226, (3R)-3-{[7-bromo-2-(4-fluorophenyl)[1,2,4]triazolo[1,5-c]quinazolin-5-yl]amino}piperidin-2-one], the IC50 under setting [1] turned out to be 1.53 nM. Still for that read-out and setting: the value for `CSc1ccc(-c2nc3c4ccccc4nc(N[C@@H]4CNCCNC4=O)n3n2)cc1` [Example 256, (6R)-6-({2-[4-(methylsulfanyl)phenyl][1,2,4]triazolo[1,5-c]quinazolin-5-yl}amino)-1,4-diazepan-5-one] was 6.94 nM; that for `O=C1NCCNC[C@H]1Nc1nc2ccccc2c2nc(-c3ccc(C(F)(F)F)cc3)nn12` [Example 259, (6R)-6-({2-[4-(trifluoromethyl)phenyl][1,2,4]triazolo[1,5-c]quinazolin-5-yl}amino)-1,4-diazepan-5-one] was 0.644 nM; that for `O=C1NCCNC[C@H]1Nc1nc2ccccc2c2nc(-c3ccc(F)cc3)nn12` [Example 260, (6R)-6-{[2-(4-fluorophenyl)[1,2,4]triazolo[1,5-c]quinazolin-5-yl]amino}-1,4-diazepan-5-one] was 6.75 nM. Consider `Cn1cc(-c2nc3c4cccc(Br)c4nc(N[C@@H]4CNCCNC4=O)n3n2)cn1` [Example 267, (6R)-6-{[7-bromo-2-(1-methyl-1H-pyrazol-4-yl)[1,2,4]triazolo[1,5-c]quinazolin-5-yl]amino}-1,4-diazepan-5-one], for which the IC50 under setting [1] was found to be 24.7 nM. The same measure, in the same setting: the value for `O=C1NCCNC[C@H]1Nc1nc2c(Br)cccc2c2nc(-c3ccc(F)cc3)nn12` [Example 269, (6R)-6-{[7-bromo-2-(4-fluorophenyl)[1,2,4]triazolo[1,5-c]quinazolin-5-yl]amino}-1,4-diazepan-5-one] was 1.2 nM.

Turning to `COc1ccc(-c2nc3c4cc(C)ccc4nc(N[C@@H]4CNCCNC4=O)n3n2)cc1` [Example 280, (6R)-6-{[2-(4-methoxyphenyl)-9-methyl[1,2,4]triazolo[1,5-c]quinazolin-5-yl]amino}-1,4-diazepan-5-one], the IC50 under setting [1] was found to be 33.3 nM.

As for `O=C1NCCNCC1Nc1nc2cccc(Br)c2c2nc(-c3ccc(F)cc3)nn12` (centres unmarked) [Example 282, 6-{[10-bromo-2-(4-fluorophenyl)[1,2,4]triazolo[1,5-c]quinazolin-5-yl]amino}-1,4-diazepan-5-one], under setting [1], the IC50 worked out at 26.9 nM. Same read-out and setting: the value for `O=C1NCCNCC1Nc1nc2cccc(Br)c2c2nc(-c3cccc(F)c3)nn12` (centres unmarked) [Example 283, 6-{[10-bromo-2-(3-fluorophenyl)[1,2,4]triazolo[1,5-c]quinazolin-5-yl]amino}-1,4-diazepan-5-one] was 172 nM; that for `COc1ccc(-c2nc3c4c(C)cccc4nc(N[C@@H]4CNCCNC4=O)n3n2)cc1` [Example 290, (6R)-6-{[2-(4-methoxyphenyl)-10-methyl[1,2,4]triazolo[1,5-c]quinazolin-5-yl]amino}-1,4-diazepan-5-one] was 288 nM; that for `COc1ccc(-c2nc3c4c(Cl)cccc4nc(NC4CNCCNC4=O)n3n2)cc1` (centres unmarked) [Example 292, 6-{[10-chloro-2-(4-methoxyphenyl)[1,2,4]triazolo[1,5-c]quinazolin-5-yl]amino}-1,4-diazepan-5-one] was 40.3 nM. For `O=C1NCCNCC1Nc1nc2cccc(Cl)c2c2nc(-c3ccc(F)cc3)nn12` (centres unmarked) [Example 293, 6-{[10-chloro-2-(4-fluorophenyl)[1,2,4]triazolo[1,5-c]quinazolin-5-yl]amino}-1,4-diazepan-5-one], under setting [1], the IC50 was found to be 56.1 nM. Regarding `Cn1cc(-c2nc3c4c(C5CC5)cccc4nc(NC4CNCCNC4=O)n3n2)cn1` (centres unmarked) [Example 294, 6-{[10-cyclopropyl-2-(1-methyl-1H-pyrazol-4-yl)[1,2,4]triazolo[1,5-c]quinazolin-5-yl]amino}-1,4-diazepan-5-one], under setting [1], the IC50 worked out at 5430 nM. Still for that read-out and setting: the value for `O=C1NCC[C@H]1Nc1nc2ccccc2c2nc(-c3ccc(OC(F)(F)F)cc3)nn12` [Example 327, (3R)-3-({2-[4-(trifluoromethoxy)phenyl][1,2,4]triazolo[1,5-c]quinazolin-5-yl}amino)pyrrolidin-2-one] was 5.29 nM.

Consider `CN1CC[C@@H](Nc2nc3ccccc3c3nc(-c4ccc(OC(F)(F)F)cc4)nn23)C1=O` [Example 328, (3R)-1-methyl-3-({2-[4-(trifluoromethoxy)phenyl][1,2,4]triazolo[1,5-c]quinazolin-5-yl}amino)pyrrolidin-2-one], for which the IC50 under setting [1] was 19.3 nM. As to `O=C1NCCC[C@H]1Nc1nc2ccccc2c2nc(-c3ccc(OC(F)(F)F)cc3)nn12` [Example 332, (3R)-3-({2-[4-(trifluoromethoxy)phenyl][1,2,4]triazolo[1,5-c]quinazolin-5-yl}amino)piperidin-2-one], the IC50 under setting [1] was 6.04 nM. For the molecule `O=C1NCCCC[C@@H]1Nc1nc2ccccc2c2nc(-c3cc(C(F)(F)F)ccn3)nn12` [Example 364], under “read-out: AHR Antagonism Mouse IC50, mouse Hepa 1c1c7 cells, 200 μM kynurenic acid, 20 hours”, the IC50 amounted to 247 nM.

Regarding `N#Cc1ccc(-c2nc3c4ccccc4nc(N[C@@H]4CCNC4=O)n3n2)cc1` [Example 388, 4-(5-{[(3R)-2-oxopyrrolidin-3-yl]amino}[1,2,4]triazolo[1,5-c]quinazolin-2-yl)benzonitrile], under setting [1], the IC50 was found to be 2890 nM. Same read-out and setting: the value for `O=C1NCCNC[C@H]1Nc1nc2ccccc2c2nc(-c3cnn(CCO)c3)nn12` [Example 414, (6R)-5-({2-[1-(2-hydroxyethyl)-1H-pyrazol-4-yl][1,2,4]triazolo[1,5-c]quinazolin-5-yl}amino)-1,4-diazepan-5-one] was over 20000 nM; that for `COc1ccc(-c2nc3c4cc(C(F)(F)F)ccc4nc(N[C@@H]4CNCCNC4=O)n3n2)cc1` [Example 418, (6R)-6-{[2-(4-methoxyphenyl)-9-(trifluoromethyl)[1,2,4]triazolo[1,5-c]quinazolin-5-yl]amino}-1,4-diazepan-5-one] was 8710 nM. `O=C1NCCNC[C@H]1Nc1nc2c(F)cccc2c2nc(-c3ccc(F)cc3)nn12` [Example 427, (6R)-6-{[7-fluoro-2-(4-fluorophenyl)[1,2,4]triazolo[1,5-c]quinazolin-5-yl]amino}-1,4-diazepan-5-one]: the IC50 under setting [1] came out at 3.16 nM. Same read-out and setting: under `CC[C@H](Nc1nc2ccccc2c2nc(-c3cccc(OC(F)(F)F)c3)nn12)C(N)=O` [Example 448, (2S)-2-({2-[3-(trifluoromethoxy)phenyl][1,2,4]triazolo[1,5-c]quinazolin-5-yl}amino)butanamide] stands 134 nM.
